Laboratory results reported in patent US20110224210A1, “NOVEL BIS-AMIDES AS ANTI-MALARIAL AGENTS” (priority 2008, published 2011).

The molecules below were run on P. falciparum K1 (strain resistant to chloroquine and pyrimethamine), erythrocytic stages (assay: Plasmodium falciparum in vitro assay, [3H] hypoxanthine incorporation). Settings: Plasmodium falciparum, K1, P. falciparum strain K1; [3H] hypoxanthine incorporation; read-out: IC50 (nM) on K1.
Format: cell-based
Method in brief: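 Chloroquine/pyrimethamine-resistant K1 erythrocytic cultures (2.5% haematocrit, 0.3% parasitaemia, hypoxanthine-free RPMI with Albumax) exposed to seven doubling dilutions at 37 °C under low O2.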
`Cc1ccc(COCCN(C)C(=O)[C@H](Cc2ccccc2)N(Cc2ccc(N3CCOCC3)cc2)C(=O)C=Cc2ccc(C(F)(F)F)cc2)c(C)c1` [Example 195, (S)-N-(1-{[2-(2,4-Dimethyl-benzyloxy)-ethyl]-methyl-carbamoyl}-2-phenyl-ethyl)-N-(4-morpholin-4-yl-benzyl)-3-(4-trifluoromethyl-phenyl)-acrylamide] gave an IC50 of 81 nM.
For `CC(=O)N1CCN(c2ccc(CN(C(=O)C=Cc3ccc(C(F)(F)F)cc3)[C@@H](Cc3ccccc3)C(=O)N(C)CCOCCOCc3ccccc3)cc2)CC1` [Example 210, (S)-N-[4-(4-Acetyl-piperazin-1-yl)-benzyl]-N-(1-{[2-(2-benzyloxy-ethoxy)-ethyl]-methyl-carbamoyl}-2-phenyl-ethyl)-3-(4-trifluoromethyl-phenyl)-acrylamide], the IC50 was 28 nM.
Molecule `CC(=O)N1CCN(c2ccc(CN(C(=O)C=Cc3ccc(C(F)(F)F)cc3)[C@@H](Cc3ccccc3)C(=O)N(C)CCOCC#N)cc2)CC1` [Example 211, (S)-N-[4-(4-Acetyl-piperazin-1-yl)-benzyl]-N-{1-[(2-cyanomethoxy-ethyl)-methyl-carbamoyl]-2-phenyl-ethyl}-3-(4-trifluoromethyl-phenyl)-acrylamide] has an IC50 of 18 nM.
Work on `CC(=O)N1CCN(c2ccc(CN(C(=O)C=Cc3ccc(C(F)(F)F)cc3)[C@@H](Cc3ccccc3)C(=O)N(C)CCN(C)Cc3ccc4c(c3)OCCN4C)cc2)CC1` [Example 245, (S)-N-[4-(4-Acetyl-piperazin-1-yl)-benzyl]-N-[1-(methyl-{2-[methyl-(4-methyl-3,4-dihydro-2H-benzo[1,4]oxazin-7-ylmethyl)-amino]-ethyl}-carbamoyl)-2-phenyl-ethyl]-3-(4-trifluoromethyl-phenyl)-acrylamide] yielded an IC50 of 87 nM.
Molecule `Cc1ccc(C=CC(=O)N(Cc2ccc(-c3ccccn3)cc2)[C@@H](Cc2ccccc2)C(=O)N2CCC(N(C)C)CC2)nc1` [Example 15, (S)-N-[1-Benzyl-2-(4-dimethylamino-piperidin-1-yl)-2-oxo-ethyl]-3-(5-methyl-pyridin-2-yl)-N-(4-pyridin-2-yl-benzyl)-acrylamide] has an IC50 of 163 nM.
For `CC(=O)N1CCN(c2ccc(CN(C(=O)C=Cc3ccc(C(F)(F)F)cc3)[C@@H](Cc3ccccc3)C(=O)N(C)CCOCc3ccncc3)cc2)CC1` [Example 205, (S)-N-[4-(4-Acetyl-piperazin-1-yl)-benzyl]-N-(1-{methyl-[2-(pyridin-4-ylmethoxy)-ethyl]-carbamoyl}-2-phenyl-ethyl)-3-(4-trifluoromethyl-phenyl)-acrylamide], the IC50 was 16 nM.
`CN(Cc1ccc(N2CCCCC2=O)cc1)C(=O)[C@H](Cc1ccccc1)N(Cc1ccc(N2CCOCC2)cc1)C(=O)C=Cc1ccc(C(F)(F)F)nc1` [Example 274] showed an IC50 of 63 nM.
`CN(CCN(C)C(=O)[C@H](Cc1ccccc1)N(Cc1ccc(N2CCOCC2)cc1)C(=O)C=Cc1ccc(C(F)(F)F)cc1)Cc1ccc(N(C)CCO)cc1` [Example 255, (S)-N-(1-{[2-({4-[(2-Hydroxy-ethyl)-methyl-amino]-benzyl}-methyl-amino)-ethyl]-methyl-carbamoyl}-2-phenyl-ethyl)-N-(4-morpholin-4-yl-benzyl)-3-(4-trifluoromethyl-phenyl)-acrylamide] was tested, and the IC50 was 59 nM.
For `COCCN(C)C(=O)[C@H](Cc1ccccc1)N(Cc1ccc(-c2cccnc2)cc1)C(=O)C=Cc1ccc(Cl)nc1` [Example 134, (S)-3-(6-Chloro-pyridin-3-yl)-N-{1-[(2-methoxy-ethyl)-methyl-carbamoyl]-2-phenyl-ethyl}-N-(4-pyridin-3-yl-benzyl)-acrylamide], the IC50 was 33 nM.
In the case of `Cc1nn(C)c(C)c1C=CC(=O)N(Cc1ccc(-c2ccncc2)cc1)[C@@H](Cc1ccccc1)C(=O)N1CCC(N(C)C)CC1` [Example 21, (S)-N-[1-Benzyl-2-(4-dimethylamino-piperidin-1-yl)-2-oxo-ethyl]-N-(4-pyridin-4-yl-benzyl)-3-(1,3,5-trimethyl-1H-pyrazol-4-yl)-acrylamide], the IC50 is reported as 14 nM.
With `COCCN(C)C(=O)[C@H](Cc1ccccc1)N(Cc1ccc(-c2ccccn2)cc1)C(=O)C=Cc1c(C)nn(C)c1C` [Example 75, (S)-N-{1-[(2-Methoxy-ethyl)-methyl-carbamoyl]-2-phenyl-ethyl}-N-(4-pyridin-2-yl-benzyl)-3-(1,3,5-trimethyl-1H-pyrazol-4-yl)-acrylamide] the IC50 was 11 nM.
`CN(C)[C@H]1CCN(C(=O)[C@H](Cc2ccccc2)N(Cc2ccc(-c3ccccn3)cc2)C(=O)C=Cc2ccc(C(F)(F)F)cc2)C1` [Example 54, N-[(S)-1-Benzyl-2-((S)-3-dimethylamino-pyrrolidin-1-yl)-2-oxo-ethyl]-N-(4-pyridin-2-yl-benzyl)-3-(4-trifluoromethyl-phenyl)-acrylamide] gave an IC50 of 17 nM.
Molecule `CN(C)[C@H]1CCN(C(=O)[C@H](Cc2ccccc2)N(Cc2ccc(-c3ccccn3)cc2)C(=O)C=Cc2ccc(C(F)(F)F)nc2)C1` [Example 56, N-[(S)-1-Benzyl-2-((S)-3-dimethylamino-pyrrolidin-1-yl)-2-oxo-ethyl]-N-(4-pyridin-2-yl-benzyl)-3-(6-trifluoromethyl-pyridin-3-yl)-acrylamide] has an IC50 of 58 nM.
`COCCN(C)C(=O)[C@H](Cc1ccccc1)N(Cc1ccc(-c2ccccn2)cc1)C(=O)C=Cc1cnc(C(F)(F)F)nc1` [Example 88, (S)-N-{1-[(2-Methoxy-ethyl)-methyl-carbamoyl]-2-phenyl-ethyl}-N-(4-pyridin-2-yl-benzyl)-3-(2-trifluoromethyl-pyrimidin-5-yl)-acrylamide] gave an IC50 of 45 nM.
For `COc1ccc(C=CC(=O)N(Cc2ccc(-c3ccccn3)cc2)[C@@H](Cc2ccccc2)C(=O)N2CCC(N(C)C)CC2)cn1` [Example 16, (S)-N-[1-Benzyl-2-(4-dimethylamino-piperidin-1-yl)-2-oxo-ethyl]-3-(6-methoxy-pyridin-3-yl)-N-(4-pyridin-2-yl-benzyl)-acrylamide], the IC50 was 115 nM.
`Cc1c(C=CC(=O)N(Cc2ccc(-c3ccncc3)cc2)[C@@H](Cc2ccccc2)C(=O)N2CCC(N(C)C)CC2)cnn1C` [Example 31, (S)-N-[1-Benzyl-2-(4-dimethylamino-piperidin-1-yl)-2-oxo-ethyl]-3-(1,5-dimethyl-1H-pyrazol-4-yl)-N-(4-pyridin-4-yl-benzyl)-acrylamide] showed an IC50 of 54 nM.
`COCCN(C)C(=O)[C@H](Cn1cccc1)N(Cc1ccc(-c2ccccn2)cc1)C(=O)C=Cc1ccc(C(F)(F)F)cc1` [Example 163, (S)-N-{1-[(2-Methoxy-ethyl)-methyl-carbamoyl]-2-pyrrol-1-yl-ethyl}-N-(4-pyridin-2-yl-benzyl)-3-(4-trifluoromethyl-phenyl)-acrylamide] was tested, and the IC50 was 37 nM.
Molecule `CN(CCN(C)C(=O)[C@H](Cc1ccccc1)N(Cc1ccc(N2CCOCC2)cc1)C(=O)C=Cc1ccc(C(F)(F)F)cc1)Cc1cccnc1` [Example 259, (S)-N-(1-{Methyl-[2-(methyl-pyridin-3-ylmethyl-amino)-ethyl]-carbamoyl}-2-phenyl-ethyl)-N-(4-morpholin-4-yl-benzyl)-3-(4-trifluoromethyl-phenyl)-acrylamide] has an IC50 of 32 nM.
`COc1ccc(CN(C)CCN(C)C(=O)[C@H](Cc2ccccc2)N(Cc2ccc(N3CCOCC3)cc2)C(=O)C=Cc2ccc(C(F)(F)F)cc2)cn1` [Example 264, (S)-N-[1-({2-[(6-Methoxy-pyridin-3-ylmethyl)-methyl-amino]-ethyl}-methyl-carbamoyl)-2-phenyl-ethyl]-N-(4-morpholin-4-yl-benzyl)-3-(4-trifluoromethyl-phenyl)-acrylamide] was tested, and the IC50 was 39 nM.
`CCCCN(CCCC)CCNC(=O)[C@H](Cc1ccccc1)N(Cc1ccc(-c2ccccn2)cc1)C(=O)C=Cc1ccc(C(F)(F)F)cc1` [Example 150] showed an IC50 of 319 nM.
`COCCN(C)C(=O)C(Cc1ncccn1)N(Cc1ccc(-c2ccncc2)cc1)C(=O)C=Cc1ccc(C(F)(F)F)cc1` (racemic) [Example 170] was tested, and the IC50 was 192 nM.
Work on `CN(C)C1CCN(C(=O)C(Cc2ccn(C)n2)N(Cc2ccc(-c3ccncc3)cc2)C(=O)C=Cc2ccc(C(F)(F)F)cc2)CC1` (racemic) [Example 140] yielded an IC50 of 191 nM.
With `COCCN(C)C(=O)[C@H](Cc1ccccc1)N(Cc1ccc(-c2ccccn2)cc1)C(=O)C=Cc1ccn(C)n1` [Example 73, (S)-N-{1-[(2-Methoxy-ethyl)-methyl-carbamoyl]-2-phenyl-ethyl}-3-(1-methyl-1H-pyrazol-3-yl)-N-(4-pyridin-2-yl-benzyl)-acrylamide] the IC50 was 156 nM.
In the case of `COCCN(C)C(=O)C(CN1CCCC1)N(Cc1ccc(-c2ccccn2)cc1)C(=O)C=Cc1ccc(C(F)(F)F)cc1` (racemic) [Example 280], the IC50 is reported as 219 nM.
With `CC(=O)N1CCN(c2ccc(CN(C(=O)C=Cc3ccc(C(F)(F)F)cc3)[C@@H](Cc3ccccc3)C(=O)N(C)CCN(C)Cc3cccc(C#N)c3)cc2)CC1` [Example 243, (S)-N-[4-(4-Acetyl-piperazin-1-yl)-benzyl]-N-[1-({2-[(3-cyano-benzyl)-methyl-amino]-ethyl}-methyl-carbamoyl)-2-phenyl-ethyl]-3-(4-trifluoromethyl-phenyl)-acrylamide] the IC50 was 52 nM.
`Cc1c(C=CC(=O)N(Cc2ccc(-c3ccccn3)cc2)[C@@H](Cc2ccccc2)C(=O)N2CCC(N(C)C)CC2)cnn1C` [Example 18, (S)-N-[1-Benzyl-2-(4-dimethylamino-piperidin-1-yl)-2-oxo-ethyl]-3-(1,5-dimethyl-1H-pyrazol-4-yl)-N-(4-pyridin-2-yl-benzyl)-acrylamide] gave an IC50 of 273 nM.
With `COCCN(C)C(=O)C(Cn1ccnc1)N(Cc1ccc(-c2ccccn2)cc1)C(=O)C=Cc1ccc(C(F)(F)F)cc1` (racemic) [Example 281] the IC50 was 448 nM.
`CN(CCOCc1ccccc1)C(=O)[C@H](Cc1ccccc1)N(Cc1ccc(N2CCOCC2)cc1)C(=O)C=Cc1ccc(C(F)(F)F)cc1` [Example 182, (S)-N-{1-[(2-Benzyloxy-ethyl)-methyl-carbamoyl]-2-phenyl-ethyl}-N-(4-morpholin-4-yl-benzyl)-3-(4-trifluoromethyl-phenyl)-acrylamide] gave an IC50 of 18 nM.
